Consider 102 compounds from PubChem BioAssay AID1996.

Each structure is given as a SMILES string. Values after ≈ are worked out from the molar mass of the structure shown.

For this series the following is noted: buffer; pH 7.4; 200.0 µM.
The compound `O=C(CN1CCOCC1)NNC(=S)Nc1ccccc1` yielded a kinetic solubility above 44.2 µg/mL. Under `O=CN1CCN(C(=S)NC(=O)c2ccc(Cl)cc2)CC1` stands 44.3 µg/mL (≈ 142 µM); under `CCS(=O)(=O)N1CCC(N2CCC(C)CC2)CC1.O=C(O)C(=O)O`, 53.3 µg/mL; under `Cc1cccc(C(=O)N/C(=C\c2ccco2)C(=O)N2CCCCCC2)c1`, 50.3 µg/mL (≈ 143 µM). Consider `O=[N+]([O-])c1ccc(C(O)C23CN4CN(CN(C4)C2)C3)cc1` (configuration not stated), for which the kinetic solubility came out at 34.8 µg/mL (≈ 120 µM).

With `CCN1CCCC1CNc1ccc(S(C)(=O)=O)cc1[N+](=O)[O-]` (configuration not stated), the kinetic solubility was above 49.1 µg/mL. `Cc1occc1C(=O)Nc1cccc(Cl)c1Cl` came in with a kinetic solubility of 4.5 µg/mL (≈ 16.7 µM).

In the case of `CC1(C)C2([N+](=O)[O-])CN3CC1([N+](=O)[O-])CN(C2)C3c1ccccn1` (configuration not stated), the kinetic solubility was 7.9 µg/mL (≈ 23.7 µM). This solubility kinetic is about 1.8-fold higher than that of the compound before. Compound `CN(c1ccccc1)S(=O)(=O)c1cccc(C(=O)NC2CCCC2)c1` registered a kinetic solubility of 47.3 µg/mL (≈ 132 µM). For `CCOc1ccc(N=C(C)C2=C(O)c3ccccc3C2=O)cc1` the value was below 0.7 µg/mL; for `O=c1c2cc(-c3ccccc3)sc2nc2n1CCC2`, 1.5 µg/mL (≈ 5.59 µM). Take `O=[N+]([O-])c1ccc(Cl)c(CN2CCCCCC2)c1`: the kinetic solubility was found to be 13.8 µg/mL (≈ 51.3 µM). Compound `COc1cc(CNCc2ccccc2)cc(Cl)c1OC.Cl` showed a kinetic solubility of 48.2 µg/mL. With `COc1cc(OC)c(C(=O)Nc2ccc3ccccc3c2)cc1OC`, the kinetic solubility is below 0.7 µg/mL.

`O=C(Nc1cccc2ncccc12)c1ccccc1F` showed a solubility (kinetic) of 39.7 µg/mL (≈ 149 µM). `CCOC(=O)c1ccc(NC(=O)Nc2ccon2)cc1` gave a solubility (kinetic) of 6 µg/mL (≈ 21.8 µM).

`O=C(COc1cccnc1[N+](=O)[O-])Nc1cccc(Br)c1` had a solubility (kinetic) of 2.7 µg/mL (≈ 7.67 µM). Under `CCN(CC)c1ccc(N=CN2CCOCC2)cc1` stands 35.9 µg/mL (≈ 137 µM).

As for `Cc1ccc(NC(=O)N(CCC#N)Cc2ccccc2)cc1`, the solubility (kinetic) was above 44 µg/mL. Under `Cc1ccc(-c2nc3ccccc3c(=O)n2O)cc1` stands 24.1 µg/mL (≈ 95.5 µM). For `O=C1c2cccc3cc([N+](=O)[O-])cc(c23)C(=O)N1CC1CCCO1` (configuration not stated) the value was 5.7 µg/mL (≈ 17.5 µM); for `O=C(CN1C(=O)c2ccccc2S1(=O)=O)NCc1ccco1`, above 48 µg/mL; for `Cc1ccc(S(=O)(=O)N2CCOCC2)cc1C(=O)OCC(=O)c1c(N)n(C)c(=O)n(C)c1=O`, 38.9 µg/mL (≈ 81 µM). Under `Cl.OCCCNCc1ccc(-c2ccccc2)cc1` stands above 41.7 µg/mL; under `CC(Oc1ccc(F)cc1)C(=O)N1CCN(c2ncccn2)CC1` (configuration not stated), above 49.6 µg/mL; under `Cc1ccc(C(CC(=O)O)NC(=O)CCNC(=O)c2ccco2)cc1` (configuration not stated), above 51.7 µg/mL. On to `COc1ccccc1NC(=O)Nc1cccnc1`, for which the kinetic solubility was 34.6 µg/mL (≈ 142 µM). Take `O=S(=O)(NC1=NCCCCC1)c1ccc(F)cc1`: the solubility (kinetic) is above 40.5 µg/mL.

Take `CN1CCN(S(=O)(=O)Cc2ccc(Cl)cc2)CC1`: the kinetic solubility stood at 33.8 µg/mL (≈ 117 µM). The compound `FC(F)(F)c1cnc(COc2ccc(Cl)cc2Cl)c(Cl)c1` displayed a kinetic solubility below 0.8 µg/mL. Under `COc1ccc(CCN2C(=O)CC(C(N)=O)SC2=Nc2ccccc2)cc1` (configuration not stated) stands 44.5 µg/mL (≈ 116 µM). With `COc1ccc(-c2cnc(N)n2C)cc1`, the kinetic solubility was 26 µg/mL (≈ 128 µM). For `O=C(N1CCN(CCO)CC1)N1c2ccccc2CCc2ccccc21` the value was 45.9 µg/mL (≈ 131 µM). For `CCOC(=O)Cc1csc(NC(=O)CCSc2ccccc2)n1` the value was 38.5 µg/mL (≈ 110 µM); for `O=C(NCC1CCCO1)c1csc(Nc2cccc3ccccc23)n1` (configuration not stated), 28.5 µg/mL (≈ 80.6 µM); for `Cc1c(O)ccc(C(=O)CN2CCN(c3ccccc3F)CC2)c1O`, 13.7 µg/mL (≈ 39.8 µM). Under `O=C(CSc1nnc2ccccn12)NCCc1ccc(F)cc1` stands above 49.6 µg/mL; under `Cc1cc(Nc2ccccc2Cl)nc(-c2ccccc2O)n1`, 1.3 µg/mL (≈ 4.17 µM); under `Cc1ccccc1NC(=O)c1cccc(S(=O)(=O)Nc2cccc(C(=O)O)c2)c1`, 34.6 µg/mL (≈ 84.3 µM).

With `O=C(O)c1ccc(NC(=O)c2ccccc2NC(=O)c2cccc(F)c2)cc1`, the kinetic solubility is above 56.8 µg/mL. The compound `Cc1ccc(CN2CCC(CO)(CC3CCCCO3)CC2)o1` (configuration not stated) gave a solubility (kinetic) above 46.1 µg/mL.

`Cc1ccsc1/C=C(\C#N)C(=O)NCCCN1CCOCC1` gave a solubility (kinetic) of 45.7 µg/mL (≈ 143 µM). The compound `CC(CCc1ccccc1)NCCC#N.Cl` (configuration not stated) returned a solubility (kinetic) above 35.8 µg/mL. Under `CC1(c2ccc(OCC(N)=O)cc2)NC(=O)NC1=O` (configuration not stated) stands 35.7 µg/mL (≈ 136 µM). For `COC(=O)c1ccccc1-c1cn(C)c2ccccc2c1=O` the value was above 44 µg/mL; for `Cc1cc(NC(=O)COC(=O)C(C)Oc2ccc(Cl)cc2Cl)no1` (configuration not stated), 42.2 µg/mL (≈ 113 µM); for `CC(C)(C)c1ccc(S(=O)(=O)N2CCN(CC(O)CN3CCOCC3)CC2)cc1` (configuration not stated), above 63.8 µg/mL.

Take `CN(C)C(=O)COc1ccc(Oc2ccccc2)cc1`: the kinetic solubility was 25.7 µg/mL (≈ 94.7 µM).

Regarding `O=C(NCCCn1ccnc1)/C(=C/c1ccco1)NC(=O)c1cccs1`, the kinetic solubility turned out to be 50.1 µg/mL (≈ 135 µM). For `Cc1ccc(C(=O)NC(=S)NCc2ccccc2)cc1Br` the value was 0.4 µg/mL (≈ 1.1 µM); for `CN1CCN(Cc2nc3ccccc3n2C)CC1CCO` (configuration not stated), 34.3 µg/mL (≈ 119 µM).

Compound `CC(=O)c1ccc2noc(-c3cccc(F)c3)c2c1` yielded a solubility (kinetic) of 6.5 µg/mL (≈ 25.5 µM). For `O=C(CCC1CCCCC1)NCCN1CCOCC1` the value was above 40.3 µg/mL; for `Cc1ccoc1C(=O)Nc1ccc2ccccc2c1`, 7.5 µg/mL (≈ 29.8 µM).

Compound `CC(NC(=O)NC(=O)c1cccc([N+](=O)[O-])c1)C1CC1` (configuration not stated) gave a kinetic solubility of 3.8 µg/mL (≈ 13.7 µM).

The compound `CC(N=C1NC(C)(C)Cc2ccccc21)C(=O)O` (configuration not stated) displayed a solubility (kinetic) of 33.2 µg/mL (≈ 135 µM). Under `OC1CCN(Cc2cccc3ccccc23)CC1` stands 29.3 µg/mL (≈ 121 µM). Under `Cc1ccc(NC(=O)C(C)C(=O)Nc2ccc(C)cc2)cc1` stands 1.5 µg/mL (≈ 5.06 µM).

The compound `CN(Cc1nc2ccccc2c(=O)[nH]1)C(=O)c1cccc(S(=O)(=O)N2CCc3ccccc32)c1` returned a kinetic solubility of 36.5 µg/mL (≈ 76.9 µM). Against the preceding compound, the solubility kinetic is about 24-fold higher. In turn, `Cc1ccc(N2CC(C(=O)N3CCCCCC3)CC2=O)cc1` (configuration not stated) displayed a solubility (kinetic) above 45.1 µg/mL. For `COc1ccc(C(=O)NC(=S)NC(C)c2ccccc2)cc1` (configuration not stated), the kinetic solubility worked out at 2.6 µg/mL (≈ 8.27 µM). `Clc1cccc(Cl)c1C1Nc2cccc3cccc(c23)N1` came in with a solubility (kinetic) of 3 µg/mL (≈ 9.52 µM). The solubility kinetic values of the last two compounds are within 1.5-fold of each other. For `O=c1cc(O)c2sc(Nc3cccc(C(F)(F)F)c3)nc2[nH]1` the value was 36.9 µg/mL (≈ 113 µM); for `COc1ccc(N=Cc2c(O)n(C)c(=O)[nH]c2=O)cc1`, 2.2 µg/mL (≈ 7.99 µM); for `COc1ccc(S(=O)(=O)N2CCC(C(=O)Oc3cccc(C)c3)CC2)cc1OC`, below 0.9 µg/mL. Under `Nc1nc(N)c2c(n1)CCCC2` stands 17.6 µg/mL (≈ 107 µM); under `NS(=O)(=O)c1ccc(NC(=O)COC(=O)CCCN2C(=O)c3cccc4cccc(c34)C2=O)cc1`, 8.8 µg/mL (≈ 17.8 µM); under `O=C(NCc1cccnc1)C1CC(c2cccc(Br)c2)=NO1` (configuration not stated), 52.5 µg/mL (≈ 146 µM). In the case of `COc1ccccc1N1C(=O)C(Cl)=C(N2CCCC2)C1=O`, the kinetic solubility was 9.4 µg/mL (≈ 30.6 µM). For `CCc1ccccc1NC(=O)c1ccc(-c2csc(C)n2)cc1` the value was 1 µg/mL (≈ 3.1 µM); for `CC(NC(=O)CN(C)CC(=O)Nc1cccc(F)c1)c1ccccc1` (configuration not stated), above 51.5 µg/mL.

In the case of `CCOc1nc(Nc2ccc(OC)cc2)nc(N2CCOCC2)n1`, the kinetic solubility was 4.8 µg/mL (≈ 14.5 µM). Compound `CN(CC(=O)Nc1cccc(F)c1)CC(=O)Nc1ccccc1-c1ccccc1` displayed a solubility (kinetic) of 17.3 µg/mL (≈ 44.2 µM). Compared with the last compound, the solubility kinetic is about 3.6-fold higher. On to `CCN(CC(=O)Nc1ccc(NC(C)=O)cc1)C(=O)c1c(C)nn(-c2ccc(F)cc2)c1Cl`, for which the kinetic solubility is above 70.8 µg/mL. `Cc1cc2oc(=O)cc(CN3CCCCC3C)c2cc1C(C)C` (configuration not stated) registered a kinetic solubility of 8.1 µg/mL (≈ 25.8 µM). In turn, `O=C(NC1CCCCCC1)c1ccc(Br)o1` registered a kinetic solubility of 27.7 µg/mL (≈ 96.8 µM).

Regarding `O=C1S/C(=C\c2cccs2)C(=O)N1c1ccc(O)cc1`, the kinetic solubility is below 0.6 µg/mL. Under `COc1ccc(Cl)cc1C(=O)O/N=C(\N)c1ccccn1` stands above 45.9 µg/mL; under `O=C(O)CCNS(=O)(=O)c1ccc2c(c1)CCCC2`, above 42.5 µg/mL. In turn, `Cc1csc(NC(=O)C2CC(=O)N(Cc3ccco3)C2)n1` (configuration not stated) displayed a kinetic solubility above 45.8 µg/mL. The compound `COc1ccccc1CNC(=O)CN1C(=O)NC(c2ccccc2)(c2ccccc2)C1=O` came in with a solubility (kinetic) of 3.1 µg/mL (≈ 7.22 µM). Turning to `Cc1ccc2c(CN(C)Cc3ccc(Cl)cc3)cc(=O)oc2c1`, the solubility (kinetic) turned out to be 1.9 µg/mL (≈ 5.8 µM).

`O=C1CN(S(=O)(=O)c2ccc([N+](=O)[O-])cc2)CC(=O)N1` showed a kinetic solubility above 44.9 µg/mL.

Take `Cc1ccc(C)c(OCC(O)CNC2CCCC2)c1.Cl` (configuration not stated): the solubility (kinetic) was above 45 µg/mL. The compound `CN1C(=O)c2ccc(NC(=O)C3CC3)cc2C1=O` showed a solubility (kinetic) of 33.4 µg/mL (≈ 137 µM). Under `NS(=O)(=O)c1ccc(Sc2ccc3ccccc3c2)nc1` stands 2.1 µg/mL (≈ 6.64 µM); under `Cc1ccc(NC(=O)CCCNC(=O)c2ccc(Cl)cc2)c(O)c1`, 13.1 µg/mL (≈ 37.8 µM). For `COC(=O)CCN(C(=O)c1ccc([N+](=O)[O-])cc1)c1ccccn1` the value was above 49.4 µg/mL; for `O=C(Nc1ccc(F)c(Cl)c1)C1CC(=O)n2c(nc3ccccc32)N1` (configuration not stated), 0.4 µg/mL (≈ 1.11 µM); for `CN(C)CC(C)(C)CNS(=O)(=O)c1ccc(Cl)cc1.Cl`, 49.4 µg/mL. For `O=C(Cc1ccccc1)c1ccccc1C(=O)N1CCCCC1` the value was above 46.1 µg/mL; for `Cc1cc(OCCCn2ccnc2)ccc1[N+](=O)[O-].O=C(O)C(=O)O`, 36.8 µg/mL. For `O=S(=O)(Cc1noc(-c2ccc(OC(F)(F)F)cc2)n1)c1ccc(F)cc1`, the solubility (kinetic) was below 0.4 µg/mL. `O=C(O)c1ccc([N+](=O)[O-])c(CS(=O)(=O)c2ccccc2)c1` yielded a kinetic solubility above 48.2 µg/mL. The compound `CCOC(=O)C1(C)NC(c2ccco2)C2C(=O)N(CC)C(=O)C21` (configuration not stated) came in with a kinetic solubility above 48.1 µg/mL. For `COc1ccc(C(=O)Nc2ccc(NC(=O)C3CC3)cn2)cc1` the value was 5.8 µg/mL (≈ 18.6 µM); for `N/C(CSc1ncccc1C(F)(F)F)=N\O`, above 37.7 µg/mL. Regarding `COc1cc(N)c(Cl)cc1C(=O)OCC(=O)NCc1cccs1`, the solubility (kinetic) turned out to be 20.6 µg/mL (≈ 58.1 µM). For `Nc1cc(S(=O)(=O)Nc2ccccc2Cl)ccc1N1CCCCC1` the value was 13.2 µg/mL (≈ 36.1 µM); for `Cc1nnc(SCC(=O)Nc2nccs2)o1`, above 38.4 µg/mL; for `Cc1cc(SCc2ccc([N+](=O)[O-])cc2)nc(=O)[nH]1`, 24.2 µg/mL (≈ 87.3 µM). `O=C(CCN1C(=O)c2cccc([N+](=O)[O-])c2C1=O)NC1CCCCCC1` registered a kinetic solubility above 53.9 µg/mL.

For orientation: kinetic solubility means solubility judged after dilution from a stock solution rather than from solid.
